Data reported in patent US20250262225A1, “COMPOSITION FOR TREATMENT OF COVID-19 COMPRISING TAURODEOXYCHOLIC ACID OR PHARMACEUTICALLY ACCEPTABLE SALT THEREOF AS ACTIVE INGREDIENT” (SHAPERON INC., priority 2021, published 2025).

Legend:
mBMDM [1] = experiment: IL-1β ELISA in mBMDM activated with LPS+ATP or LPS+BzATP; type: cell-based, mouse; settings: then 0, 25, 100 or 400 ng/ml TDCA, FIG. 2B
Protocol: (§1) The bone marrow-derived macrophages of Example <1-1> were cultured in culture dishes at various densities and then collected (4×10^4, 5×10^5, 1×10^6 cells/well, 96-well, 24-well, and 12-well culture dishes, respectively). […] After the time expired, the supernatant was collected, stored at −80° C., and then subjected to ELISA analysis.

[2] = half-life estimate from non-clinical data; settings: calculated based on estimates made from non-clinical data
mBMDM cells = experiment: intracellular cAMP concentration in LPS-stimulated mBMDM (chemiluminescent analysis); type: cell-based, mouse; settings: 100 ng/ml LPS and 400 ng/ml TDCA simultaneously for 30 minutes; FIG. 1A
Protocol: Specifically, the bone marrow extracted from C57BL/6N mouse was differentiated in RPMI medium supplemented with 10% FBS, 100 U/ml penicillin streptomycin, 55 μM 2-mercaptoethanol, and 10 ng/ml recombinant mouse granulocyte-macrophage colony-stimulating factor (GM-CSF) for 7 days.

mBMDM [3] = experiment: qRT-PCR of inflammation-related factor transcription in LPS+BzATP-treated mBMDM; type: cell-based, mouse; settings: 10 ng/ml LPS, 300 μM BzATP and 400 ng/ml TDCA simultaneously 1 hour, FIG. 1B
Protocol: as §1, with “cells were” for “supernatant was”, “qRT-PCR” for “ELISA”

[4] = tested on: sepsis induced by intravenous LPS in dogs; experiment: canine LPS-induced sepsis (systemic inflammation) model; type: in vivo, dog; settings: LPS i.v.
Protocol: After LPS administration, blood pressure was monitored every 1 hour, blood was collected at 0, 1, 3, 6, 12, 18, 24, 36, and 48 h, and the animals were sacrificed at 48 h to complete the experiment.
The survival rate was examined by checking the number of beagle dogs that died for 48 hours in the two treatment groups in which sepsis was induced in Example <2-1>.
Blood pressure was measured hourly for 48 hours in the two treatment groups in which sepsis was induced in Example <2-1>.
Blood urea nitrogen (BUN) and creatinine tests were performed as renal function tests. Specifically, blood was collected hourly for 48 hours from the two treatment groups in which sepsis was induced in Example <2-1>, serum was separated, and then BUN and […] concentrations in the serum were measured.
Blood was collected hourly for 48 hours from the two treatment groups in which sepsis was induced in Example <2-1>, serum was separated, and then the inflammatory cytokine IL-1β in the serum was measured.

mBMDM [5] = experiment: TNF-α ELISA in LPS-primed mBMDM; type: cell-based, mouse; settings: 10 ng/ml LPS 3 hours, then 0, 25, 100, 400 ng/ml TDCA 1 hour, FIG. 1C
Protocol: After the time expired, the supernatant was collected, stored at −80° C., and then subjected to ELISA analysis.

[6] = phase 1 clinical trial: safety/tolerability and pharmacokinetics in healthy adult male volunteers; type: in vivo, human; settings: healthy males
Protocol: Forty healthy adult male volunteers in Korea were selected as subjects for the clinical trial. The clinical trial was conducted at Seoul National University Hospital (Seoul, Korea) and was targeted at people who met all of the selection criteria in [Table 1].
A randomized, double-blind, standard treatment-based placebo-controlled trial group was assigned to evaluate drug safety/tolerability and pharmacokinetics (PK) in clinical trial subjects. As a therapeutic agent, NuSepin, an injectable clinical agent containing TDCA, was used.
A screening test was performed on healthy male volunteers within 4 weeks (−28 d to −4 d) from the first administration date (1 d) of the study drug to select test subjects determined to be suitable for this clinical trial. […] In the morning on the study drug administration date (1 d), designated tests such as blood collection for pharmacokinetic analysis and safety evaluation were performed, and then the study drug or placebo was administered intravenously on an empty stomach. The test subjects were subjected to the clinical trial according to the set schedule and discharged from the hospital 1 day (2 d) after administration, and the subjects who completed all clinical trial schedules underwent a post-study visit between 4 d and 6 d.
• Monitoring of adverse events such as subjective and objective symptoms • Physical examination • Vital signs • Electrocardiogram (12-Lead ECG) test • Clinical laboratory test • Local toxicity assessment • Continuous ECG and SpO2 monitoring
Adverse events were described by dose group and treatment group based on severity and causal relationship with the stsudy drug, and the frequency and percentage of the number of test subjects with adverse events were compared and evaluated. Vital signs, electrocardiogram test, clinical laboratory tests, physical examination, monitoring of adverse events such as subjective and objective symptoms, continuous ECG and SpO2 monitoring, and the like were comprehensively reviewed, and statistical analysis was performed if necessary only on items determined to be clinically significant.
Pharmacokinetic variables were obtained by a non-compartmental analysis method for subjects who completed this clinical trial using appropriate and validated pharmacokinetic software (for example, Phoenix WinNonlin® (Version 8.0 or higher, Pharsight, CA, USA)), and descriptive statistics (mean, standard deviation, and the like) were obtained for each dose group and treatment group.

[7] = single i.v. NuSepin 0.1-1.6 mg/kg or placebo

Substance: sodium taurodeoxycholate [TDCA]
- concentration of IL-1β produced by inflammation activation (mBMDM [1]): decreases in proportion to the amount of TDCA used for treatment
- half-life of the drug [2]: approximately 1 hour
- cAMP concentration in cells (mBMDM cells): recovered
- intracellular transcriptional expression of ASC (mBMDM [3]): decreased
- intracellular transcriptional expression of Caspase1 (mBMDM [3]): decreased
- intracellular transcriptional expression of IL-1β (mBMDM [3]): decreased
- intracellular transcriptional expression of NLRP3 (mBMDM [3]): decreased
- survival rate ([4]; TDCA i.v. 2, 1, 1 mg/kg at 12-hour intervals, 48 hours, half of placebo animals died, FIG. 3B): all animals administered with TDCA have survived until 48 hours
- blood pressure (hypotensive shock) ([4]; TDCA i.v. 2, 1, 1 mg/kg, FIG. 3C): hypotensive shock tends to be inhibited
- increase in level of BUN in the blood ([4]; TDCA i.v. 2, 1, 1 mg/kg, FIG. 3D): suppressed
- increase in level of creatinine in the blood ([4]; TDCA i.v. 2, 1, 1 mg/kg, FIG. 3E): suppressed
- IL-1β in serum ([4]; TDCA i.v. 2, 1, 1 mg/kg, FIG. 3F): further inhibited than those in the placebo group
- IL-8 in serum ([4]; TDCA i.v. 2, 1, 1 mg/kg, FIG. 3G): further inhibited than those in the placebo group
- TNF-α produced by LPS (mBMDM [5]): decreased
- PK properties ([6]; single i.v. 0.1, 0.2, 0.4, 0.8, 1.6 mg/kg): concentration dependent manner
- drug-related side effects [6, 7]: one has mild IMD (immunomodulatory drugs)-related side effects
- severity and outcome of side effects [6, 7]: all of the side effects are not severe and recover without treatment
- clinical trial subjects with side effects ([6]; single i.v. NuSepin 0.1-1.6 mg/kg or placebo, 40 subjects): three of the clinical trial subjects have side effects
